The source of these data is patent publication US11242327B2, “Analgesic compounds” (RECURIUM IP HOLDINGS, LLC, priority 2017, dated 2022).

The target of one series is Opiate δ2 (Homo sapiens, UniProt P41143). The experiment in a line: NSAIDS and Opioid Receptor Test: Opiate δ2. It counts as binding. The procedure:
(§1) Compounds were screened as DMSO solutions at 10 μM, 100 μM, or 200 μM and values represent percent inhibition of control-specific binding. […] As NSAID and opioid mechanisms of action are precluded, a person of ordinary skill in the art understands that undesirable side effects associated with inhibition of COX receptors in NSAIDs and activation of opiate receptors in opioids can be avoided by compounds described herein. Furthermore, opioids are known to lose their analgesic potency after to continued administration. (See Benyamin, et al. “Opioid Complications and Side Effects” Pain Physician 11 (2008): S105-S120). As the data indicates compounds described herein have a different mechanism action compared to opioids, a person of ordinary skill in the art would appreciate that compounds described herein would not be expected to lose their analgesic potency like opioids after continued admininistration.

Series [1] deals with male Sprague-Dawley rats. Nature of the series: Formalin Paw Test, rat, oral. It counts as in vivo. The conditions noted are these: 30 mg/kg. The procedure: (§2) One test compound or the vehicle was administered to each rat or mouse in each test group (8 rats or mice per group). Non-fasted male Sprague-Dawley rats weighing 200-225 g or non-fasted male ICR mice weighing 23±3 g were used. […] Responses were measured every 5 minutes after the formalin injection for 35 minutes. The results in Table 2 are for oral administration in rat and the results in Table 3 are for intraperitoneal administration in mouse. In Tables 2 and 3, 'A' designates <70 seconds of paw licking, 'B' designates >70 and <165 seconds of paw licking, and 'C' designates >165 seconds of paw licking.

Series [2] in a line: Bioavailability Test (rat pharmacokinetics). The class given is in vivo. The protocol: Oral bioavailability of compounds of Formulae (Ie), (Ih), (Ik), and (Ir), or a pharmaceutically acceptable salt of any of the foregoing, were evaluated in fasted male Sprague-Dawley (SD) rats weighing 200-225g. Compounds were dosed at 3 mg/kg (IV) and 30 mg/kg (PO). Unless otherwise noted, compounds were dissolved in 0.9% saline for IV dosing and 100% sterile water for PO dosing. Pharmacokinetic parameters were determined using Phoenix WinNonlin (v7.0). […]

The target of the next series is COX-1 (Homo sapiens, UniProt P23219). Nature of the series: NSAIDS and Opioid Receptor Test: COX-1. The class given is biochemical. The conditions noted are these: 200 μM. The protocol: as §1
Sequence of COX-1 (P23219 24-599): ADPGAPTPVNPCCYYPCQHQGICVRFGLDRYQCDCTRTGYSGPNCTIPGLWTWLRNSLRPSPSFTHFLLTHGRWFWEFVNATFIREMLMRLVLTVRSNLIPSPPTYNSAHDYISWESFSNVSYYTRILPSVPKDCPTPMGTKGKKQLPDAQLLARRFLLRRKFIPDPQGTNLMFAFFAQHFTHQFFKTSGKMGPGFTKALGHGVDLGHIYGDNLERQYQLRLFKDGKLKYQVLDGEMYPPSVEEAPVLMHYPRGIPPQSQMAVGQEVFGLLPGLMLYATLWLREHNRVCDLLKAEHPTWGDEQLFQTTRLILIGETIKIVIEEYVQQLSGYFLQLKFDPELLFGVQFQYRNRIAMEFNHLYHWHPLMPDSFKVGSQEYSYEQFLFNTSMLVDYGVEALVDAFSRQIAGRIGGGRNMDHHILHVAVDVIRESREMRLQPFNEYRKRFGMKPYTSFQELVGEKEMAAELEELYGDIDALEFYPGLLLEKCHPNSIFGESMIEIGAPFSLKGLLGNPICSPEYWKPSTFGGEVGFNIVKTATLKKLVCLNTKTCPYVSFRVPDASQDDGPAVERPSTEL
The next series has as its target Opiate μ (Homo sapiens, UniProt P35372). Nature of the series: NSAIDS and Opioid Receptor Test: Opiate μ. The class given is binding. The procedure:
as §1

In the next series the target is Opiate κ (Homo sapiens, UniProt P41145). Nature of the series: NSAIDS and Opioid Receptor Test: Opiate κ. The class given is binding. The procedure:
as §1

Another series concerns the target T1, COX-2 (Homo sapiens, UniProt P35354).
T1 sequence (P35354 18-604): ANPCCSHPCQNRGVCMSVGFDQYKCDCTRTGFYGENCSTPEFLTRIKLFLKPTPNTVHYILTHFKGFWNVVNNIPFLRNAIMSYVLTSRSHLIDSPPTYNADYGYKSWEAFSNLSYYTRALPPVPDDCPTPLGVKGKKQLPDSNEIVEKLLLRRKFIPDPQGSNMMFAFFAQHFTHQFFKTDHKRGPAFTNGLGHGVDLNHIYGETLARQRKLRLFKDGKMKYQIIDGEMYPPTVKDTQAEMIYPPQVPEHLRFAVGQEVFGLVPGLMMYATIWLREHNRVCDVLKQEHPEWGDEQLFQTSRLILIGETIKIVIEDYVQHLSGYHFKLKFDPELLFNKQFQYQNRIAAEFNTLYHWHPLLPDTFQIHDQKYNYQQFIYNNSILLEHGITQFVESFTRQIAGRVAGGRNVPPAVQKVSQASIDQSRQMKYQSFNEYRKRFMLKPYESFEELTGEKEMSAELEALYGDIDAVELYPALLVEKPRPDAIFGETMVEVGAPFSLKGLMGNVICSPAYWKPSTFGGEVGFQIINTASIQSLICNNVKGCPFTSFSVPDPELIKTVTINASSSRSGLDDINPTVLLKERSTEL
The experiment in a line: NSAIDS and Opioid Receptor Test: COX-2. It counts as biochemical. The conditions noted are these: 200 μM. The procedure: as §1

The subject of the next series is male ICR mice. Nature of the series: Formalin Paw Test, mouse, intraperitoneal. It counts as in vivo. Particulars: 60 mg/kg; for Early Phase, seconds of paw licking: early/acute phase (0-10 minutes); for Late Phase, seconds of paw licking: late/tonic phase (10-35 minutes). The protocol: as §2
For the next series, the system named is adult male C57BL/6 mice. Nature of the series: Conditioned Place Preference (Abuse) Test. It counts as in vivo, mouse. The text has this: A conditioned place preference (CPP) model was used to assess the reward properties of compounds of formulae (Ie), or a pharmaceutically acceptable salt of any of the foregoing, in adult male C57BL/6 mice. The CPP model apparatus consisted of a Plexiglas© test unit having three (A, B, C) compartments (9 cm×9 cm×16 cm) configured to allow access to all chambers. Compartments A and C had textually distinct flooring and wall marking. Mice were placed in the middle compartment with free access to the other compartments. On day 1 and 2, the “naive chamber preference” was assessed by placing the animal in the middle chamber twice a day (AM and PM) for 30 min on two consecutive days, with the chamber showing the greatest residence time being called the “preferred chamber”. On “drug pairing days” (days 5, 6, 7 and 8) mice were injected IP with vehicle (50 mM citric acid) in the AM in the preferred chamber and the drug/vehicle in the afternoon in the non-preferred chamber for four consecutive days. On the morning of day 9 (the day after the last drug pairing), the “drug chamber preference” was assessed by placing the mouse (absent any injection) in the middle chamber, with free access to all chambers for 30 minutes. This was repeated five days later (day fourteen), with no intervening drug treatment.
The time spent on days 9 and 14 (e.g. […] respectively after the last drug treatment) in the drug associated chamber was the test datum and is represented in FIG. 1. […] In contrast, there was no increase in the non-preferred chamber residence time when the least-preferred chamber was paired with saline, APAP or test compounds 2 or 28 on either days 9 or 14, or days 0 or 5.

The subject of series [3] is male Sprague-Dawley rats. The experiment in a line: Post-Incisional (Brennan) Pain Test. The class given is in vivo. The conditions noted are these: rat; for cumulative pain score, 4 h: 4 h post-dosing; for cumulative pain score, 24 h: 24 h post-dosing. The protocol:
Incisional pain was induced in non-fasted male Sprague-Dawley rats weighing 180-300 g by making a 1-cm plantar incision in the left hind paw and is designed to mimic pain and sensitivity similar to what is reported by patients after surgery. Dosing occurred at the time of incision and spontaneous pain was measured 4 and 24 hours post-dosing using a cumulative pain score. The unrestrained animals were placed on a metal mesh platform and allowed to acclimate for about 15 min/ Each animal was closely observed during a 1-min period repeated every 5 min for 1 h (12 times total). Depending on the position in which the foot was found during the scoring period, a score of 0, 1, or 2 was given. Full weight bearing of the foot (score=0) was present if the skin on the plantar surface of the paw wound was blanched or distorted by the mesh. If the foot was completely off the mesh, or one or more instances of licking or flinching was observed, a score of 2 was recorded and the licking or flinching was noted but not counted. If the plantar surface of the paw touched the mesh without blanching or distorting, a score of 1 was given. The sum of the 12 scores obtained during the 1 h session was calculated (maximum score=24) for each animal. Observations were made during hours 4 and 24. Test articles were administered orally at concentrations of 10, 30 or 100 mg/kg and ketoprofen was administered subcutaneously at a concentration of 10 mg/kg. The control group received the vehicle (sterile water). In Table 6, ‘A’ designates a cumulative pain score of ≤11, ‘B’ designates >11 and ≤16, and ‘C’ designates >16.
The results provided in Table 6 are for oral administration in rats.

Where [4] appears, read: male, Sprague-Dawley, in vivo, IV 3 mg/kg, 0.9% saline.
The mark [5] stands for this setting: male, Sprague-Dawley, in vivo, PO 30 mg/kg, sterile water.

Structures can show the parent of a compound that is named as a salt.

Sequence of Opiate δ2 (P41143 whole entry): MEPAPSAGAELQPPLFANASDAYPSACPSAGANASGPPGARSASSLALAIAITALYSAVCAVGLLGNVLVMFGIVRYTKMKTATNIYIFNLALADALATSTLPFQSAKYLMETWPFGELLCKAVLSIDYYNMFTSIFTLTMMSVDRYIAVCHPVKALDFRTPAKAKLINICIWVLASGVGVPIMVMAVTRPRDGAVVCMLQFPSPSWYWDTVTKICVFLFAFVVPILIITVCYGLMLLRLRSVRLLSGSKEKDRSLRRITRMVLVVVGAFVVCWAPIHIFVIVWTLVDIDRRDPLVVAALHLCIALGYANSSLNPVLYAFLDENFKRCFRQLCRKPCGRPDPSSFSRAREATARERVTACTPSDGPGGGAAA
Sequence of Opiate μ (P35372 whole entry): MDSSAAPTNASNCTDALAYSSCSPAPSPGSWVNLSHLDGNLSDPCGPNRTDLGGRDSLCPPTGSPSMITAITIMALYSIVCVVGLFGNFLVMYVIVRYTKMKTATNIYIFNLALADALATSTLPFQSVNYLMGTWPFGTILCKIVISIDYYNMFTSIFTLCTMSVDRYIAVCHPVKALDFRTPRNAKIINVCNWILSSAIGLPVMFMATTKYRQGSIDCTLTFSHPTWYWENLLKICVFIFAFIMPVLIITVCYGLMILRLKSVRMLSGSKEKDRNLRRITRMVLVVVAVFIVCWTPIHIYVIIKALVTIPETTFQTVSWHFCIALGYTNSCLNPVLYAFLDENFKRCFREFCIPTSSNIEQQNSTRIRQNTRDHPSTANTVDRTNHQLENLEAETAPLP
Sequence of Opiate κ (P41145 whole entry): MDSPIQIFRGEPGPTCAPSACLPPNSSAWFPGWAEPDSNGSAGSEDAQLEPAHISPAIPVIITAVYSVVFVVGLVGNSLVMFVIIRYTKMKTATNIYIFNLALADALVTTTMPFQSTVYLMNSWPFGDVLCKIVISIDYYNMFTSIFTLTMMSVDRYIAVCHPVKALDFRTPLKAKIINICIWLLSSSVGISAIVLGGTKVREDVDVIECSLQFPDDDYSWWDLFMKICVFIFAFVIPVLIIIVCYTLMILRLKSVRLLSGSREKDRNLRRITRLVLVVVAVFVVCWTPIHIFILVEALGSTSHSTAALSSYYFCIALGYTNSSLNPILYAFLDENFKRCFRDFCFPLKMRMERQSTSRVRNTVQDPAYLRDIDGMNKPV

In general, inhibition refers to the percentage by which the read-out fell short of the control. High values mean a strong effect, low ones a weak effect. Broadly, the AUC(0-inf) is total exposure, with the tail of the curve extrapolated. A word on the clearance: it is the volume of plasma or blood freed of the substance per unit of time. Read a low clearance as a low capacity for elimination. In general, half-life refers to how long it takes for the measured level to halve. Low readings indicate rapid decline, high ones slow decline. What is called Cmax is the peak of the concentration-time curve. The term Tmax denotes the time from dosing to the highest level. For `Cl.NC12CC(c3cccc(C(F)(F)F)n3)(C1)C2` [Compound 13, 3-(6-(Trifluoromethyl)pyridin-2-yl)bicyclo[1.1.1]pentan-1-amine hydrochloride], the inhibition at 200 µM on Opiate δ2 (200 μM) amounted to 6%; on COX-1, 6%; against Opiate μ (200 μM), 56%; against Opiate κ (200 μM), 33%; against COX-2 it was 8%. For the same molecule, the “Early Phase, seconds of paw licking” value in the series with male Sprague-Dawley rats [1] (early/acute phase (0-10 minutes)) is reported as “A (<70 seconds of paw licking)”. In the series on male Sprague-Dawley rats [1] (late/tonic phase (10-35 minutes)), the “Late Phase, seconds of paw licking” value was “A (<70 seconds of paw licking)”. Also, the F in series [2] (PO 30 mg/kg vs IV 3 mg/kg) was determined as 16%. For the same molecule, the AUC(0-inf) in series [2] (setting [4]) stood at 3 µM·h; in series [2] (setting [5]), 35 µM·h. For the same molecule, the clearance in series [2] (setting [4]) turned out to be 73 mL/min/kg. The half-life in [2] (setting [4]) is 9.5 h; in series [2] (setting [5]) it was 6.8 h. The Vd in series [2] (male, Sprague-Dawley, in vivo, IV 3 mg/kg, 0.9% saline, read-out: Vdss) was determined as 20.2 L/kg. In addition, the Cmax in series [2] (setting [5]) came out at 11 µM. Further, the Tmax in series [2] (setting [5]) stood at 0.6 h.

Consider `CC(C)[C@H](N)C(=O)NC12CC(C(F)(F)F)(C1)C2` [Compound 23, (S)-2-Amino-3-methyl-N-(3-(trifluoromethyl)bicyclo[1.1.1]pentan-1-yl)butanamide hydrochloride], for which, in the series on male ICR mice, the “Early Phase, seconds of paw licking” value is “A (<70 seconds of paw licking)” and the “Late Phase, seconds of paw licking” value was “C (>165 seconds of paw licking)”.

With `CCOC(=O)NC12CC(C(F)(F)F)(C1)C2` [Compound 24, Ethyl (3-(trifluoromethyl)bicyclo[1.1.1]pentan-1-yl)carbamate], in the series on male ICR mice, the “Early Phase, seconds of paw licking” value is given as “A (<70 seconds of paw licking)”; the “Late Phase, seconds of paw licking” value was “B (>70 and <165 seconds of paw licking)”.

`NC12CC(C(F)(F)F)(C1)C2` [Compound 28, 3-(trifluoromethyl)bicyclo[1.1.1]pentan-1-amine hydrochloride]: the inhibition at 100 µM stood at 2% against Opiate δ2 (100 μM), 3% against Opiate μ (100 μM) and 1% on Opiate κ (100 μM). For the same molecule, the “least preferred (drug associated) chamber residence time” value with adult male C57BL/6 mice (mouse, in vivo, ip) is “no increase”. Besides, the “cumulative pain score, 4 h” value with male Sprague-Dawley rats [3] (oral, 10 mg/kg) was “C (>16)”; in the series on male Sprague-Dawley rats [3] (oral, 30 mg/kg), “B (>11 and ≤16)”; in the series on male Sprague-Dawley rats [3] (oral, 100 mg/kg), “B (>11 and ≤16)”. The “cumulative pain score, 24 h” value is “C (>16)” in the series with male Sprague-Dawley rats [3] (oral, 10 mg/kg); “B (>11 and ≤16)” in the series with male Sprague-Dawley rats [3] (oral, 30 mg/kg); “A (a cumulative pain score of ≤11)” in the series on male Sprague-Dawley rats [3] (oral, 100 mg/kg).

For the molecule `CC(C(=O)O)c1cccc(C(=O)c2ccccc2)c1` (stereo not shown) [Ketoprofen, reference compound], in the series with male Sprague-Dawley rats [3] (subcutaneously, 10 mg/kg), the “cumulative pain score, 4 h” value was “B (>11 and ≤16)”; the “cumulative pain score, 24 h” value is given as “A (a cumulative pain score of ≤11)”.

As to `CN1CC[C@]23c4c5ccc(O)c4O[C@H]2[C@@H](O)C=C[C@H]3[C@H]1C5` [morphine, reference compound], the “least preferred (drug associated) chamber residence time” value in the series with adult male C57BL/6 mice (mice, IP, drug pairing 4 consecutive days, assessed on day 9) was “significant increase”; in the series with adult male C57BL/6 mice (mice, IP, drug pairing 4 consecutive days, assessed on day 14) it was “significant increase”.
